According to publication PMC11056982, “Paraptotic Cell Death as an Unprecedented Mode of Action Observed for New Bipyridine-Silver(I) Compounds Bearing Phosphane Coligands” (Journal of Medicinal Chemistry, 2024):
Marks after values point to notes of the source that are not given here.

Assays:
SK-OV-3/CBP = experiment: MTT viability assay in carboplatin-resistant SK-OV-3/CBP cells; format: cell-based, human; conditions: 72 h; for relative resistance (IC50 SK-OV-3/CBP divided by IC50 SK-OV-3): resistant subline vs parental line; for IC50: MTT, carboplatin-resistant subline, mean ± SD
Protocol: (§1) Cells were seeded (2 × 10^4 cells/well for HCT116, HCT116/OxR, 3 × 10^4 cells/well for HCT116 p53KO, 4 × 10^4 cells/well for MES-OV, SK-OV-3, and their respective CBP resistant counterparts) in 100 μL/well in 96-well plates and allowed to attach for 24 h at 37 °C and 5% CO2. Compounds were first dissolved in DMSO to a 10 mM stock solution and then further diluted in a growth medium (DMSO concentration <1%). After 24 h, cells were treated with 100 μL of different drugs dilutions in triplicates with the final concentrations of 0, 0.01, 0.05, 0.075, 0.1, 0.5, 0.75, 1, 2.5, 5, 7.5, and 10 μM depending on the compound and the cell line.

HCT116 WT/OxR = experiment: MTT viability assay in oxaliplatin-resistant HCT116 WT/OxR cells; format: cell-based, human; conditions: 72 h; for relative resistance (IC50 HCT116 WT/OxR divided by IC50 HCT116 WT): resistant subline vs parental line; for IC50: MTT, oxaliplatin-resistant subline, mean ± SD
Protocol: as §1

MES-OV/CBP = experiment: MTT viability assay in carboplatin-resistant MES-OV/CBP cells; format: cell-based, human; conditions: 72 h; for relative resistance (IC50 MES-OV/CBP divided by IC50 MES-OV): resistant subline vs parental line; for IC50: MTT, carboplatin-resistant subline, mean ± SD
Protocol: as §1

MES-OV = experiment: MTT viability assay in MES-OV ovarian carcinoma cells; format: cell-based, human; conditions: for cancer cells killed at lowest tested concentration: MES-OV, 0.05 μM; for cancer cells killed at lowest tested concentration / IC50: 72 h; for IC50: MTT, mean ± SD
Protocol: as §1

recombinant rat TrxR = biological target: T1, recombinant rat TrxR (Rattus norvegicus, UniProt O89049); experiment: Inhibition of mammalian TrxR (microplate reader-based DTNB assay); format: biochemical; conditions: cell-free assay
T1 construct: purchased Cayman Chemical
T1 sequence (O89049 1-499): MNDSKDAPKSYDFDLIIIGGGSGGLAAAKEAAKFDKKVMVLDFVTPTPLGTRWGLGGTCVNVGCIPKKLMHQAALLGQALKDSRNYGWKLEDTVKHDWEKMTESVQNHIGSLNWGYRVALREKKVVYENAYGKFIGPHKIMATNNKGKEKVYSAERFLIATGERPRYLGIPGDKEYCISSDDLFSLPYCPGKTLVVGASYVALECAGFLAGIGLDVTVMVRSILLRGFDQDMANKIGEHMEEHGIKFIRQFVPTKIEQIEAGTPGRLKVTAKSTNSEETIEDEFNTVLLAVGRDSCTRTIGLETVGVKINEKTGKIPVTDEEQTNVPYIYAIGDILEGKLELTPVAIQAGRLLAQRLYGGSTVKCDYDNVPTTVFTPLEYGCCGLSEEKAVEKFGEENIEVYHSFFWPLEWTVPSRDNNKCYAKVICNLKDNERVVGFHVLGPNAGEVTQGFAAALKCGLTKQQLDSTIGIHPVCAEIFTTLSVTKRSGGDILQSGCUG
Protocol: To determine the inhibition of mammalian TrxR, an established microplate reader-based assay was performed. For this purpose, commercially available recombinant rat TrxR (from Cayman Chemical) was used and diluted with distilled water to achieve a concentration of 0.12 U mL^–1. The compounds were freshly dissolved as stock solutions in DMSO. Aliquots (25 μL) of the enzyme solution and 25 μL of potassium phosphate buffer (pH 7.0) containing the compounds in graded concentrations (1% DMSO) were mixed. Positive controls were composed of 25 μL aliquots of the enzyme solution mixed with 25 μL 1% DMSO in buffer solution (no compounds). The final concentration of DMSO was 0.5% v/v in all samples. The blank solution was the highest used concentration of the compound in 0.5% DMSO in buffer solution (no enzyme). All resulting solutions were incubated with moderate shaking for 75 min at 37 °C in a 96-well plate. […] After proper mixing, the formation of 2-nitro-5-thiobenzoate (5-TNB) was monitored with a microplate reader at 405 nm 10 times in 35 s intervals for about 6 min. The increase in 5-TNB concentration over time followed a linear trend, and the enzymatic activities were calculated as the slopes (increase in absorbance per second) thereof. […] For the absorption measurements in the enzyme assay, a PerkinElmer 2030 Multilabel Reader VICTORTMX4 was used.

MES-OV cells [1] = experiment: Mitochondrial membrane potential by JC-1 stain (flow cytometry); format: cell-based, human; conditions: 24 h
Protocol: Cells were seeded in a density of (2–4) × 10^5 cells/well in six-well plates and in 1 mL culture medium containing 10% FBS. After 24 h recovery, cells were treated with the indicated compounds and concentrations. Next, the supernatant was collected followed by trypsinization of the cells and centrifugation at 300g for 5 min. In the following protocols, cells were stained with annexin V (AV) and propidium iodide (PI) for cell death analysis, with only PI for cell cycle analysis, or with 10 μg mL^–1 JC-1 for evaluation of the mitochondrial membrane potential as previously described.[54],[55]

MES-OV cells [2] = experiment: ROS detection by DCF-DA flow cytometry in MES-OV; format: cell-based, human; conditions: 24 h, 2.5 μM
Protocol: Cells were seeded 5 × 10^5 cells/mL in six-well plates. After 24 h treatment with the indicated concentration, cells were incubated with 10 μM 2′,7′-dichlorofluorescein diacetate (DCFH-DA, Sigma-Aldrich) in Hank’s balanced salt solution for 1 h at 37 °C. Subsequently, flow cytometry (with BD LSR Fortessa instrument, BD Biosciences, Franklin Lakes, NJ, USA) was performed to measure the median fluorescence signal of 20,000 single cells per sample. FlowJo (BD Biosciences, San Jose, CA, USA) and GraphPad Prism software (GraphPad Software Inc., San Diego, CA, USA) were to analyze the data.

[3] = Stability in PBS by LC-ESI(+)-HRMS/MS; format: physicochemical; conditions: 80 μM in PBS, monitored 48 h
Protocol: For the stability evaluation in PBS, 10 mM solutions of complexes 1, 4, and 7 were first prepared in DMSO. Two microliters of this solution were then added to PBS (250 μL) for a total concentration of 80 μM. Following centrifugation for 10 min at 3000 rpm, the resulting solutions were monitored by LC-ESI(+)-MS and LC-ESI(+)-HRMS for a period of 48 h.

MES-OV cells [4] = experiment: TEM analysis of subcellular morphology; format: cell-based, human; conditions: 24 h treatment
Protocol: MES-OV Cells were seeded (8 × 10^5 cells/mL) in […] in six-well plates. After 24 h, cells were treated with the selected compounds at the indicated concentration for another 24 h. Afterward, cells were collected, pelleted, and fixed in a solution of 2.5% glutaraldehyde and 2% paraformaldehyde in 0.1 M cacodylate buffer (pH 7.4) for 2 h at room temperature. Samples were subsequently washed 3 × 10 min in cacodylate buffer and postfixed in 1% osmium tetroxide for 1 h. After 3 × 10 min washing in cacodylate buffer, samples were dehydrated in an ethanol series (30–100%, 10 min each) and pure acetone (2 × 10 min) and gradually embedded in Epon 812 resin (Serva). Sections (40–50 nm) were prepared with a Leica UC7 ultramicrotome, mounted on copper mesh grids, and contrasted with 1% uranyl acetate (7 min) and 3% lead citrate (3 min). Imaging was performed with a Tecnai G2 20 transmission electron microscope at 80 kV equipped with an FEI Eagle 4K CCD camera (Center for Anatomy and Cell Biology). Image processing was performed in Fiji[57] using the CLAHE filter (enhance local contrast).

MES-OV cells [5] = experiment: Phase-contrast microscopy of cytoplasmic vacuoles; format: cell-based, human; conditions: 6 and 24 h treatment
Protocol: Cells were seeded 5 × 10^5/well in six-well plates after 24 h recovery treatment with compounds 1, 4, and 7 was performed with the indicated concentrations. After 6 and 24 h, phase-contrast images of the cells were taken with a Zeiss Primovert microscope (20× magnification). To determinate the percentage of vacuolated cells, images (three images each condition) were analyzed by ImageJ, and vacuolated cells were counted.

SK-OV-3 = experiment: MTT viability assay in SK-OV-3 ovarian carcinoma cells; format: cell-based, human; conditions: 72 h, mean ± SD of three independent experiments
Protocol: as §1

HCT116 WT = experiment: MTT viability assay in HCT116 WT colon carcinoma cells; format: cell-based, human; conditions: 72 h, mean ± SD
Protocol: as §1

HCT116 p53KO = experiment: MTT viability assay in p53-deleted HCT116 p53KO cells; format: cell-based, human; conditions: 72 h, p53-deleted subclone, mean ± SD
Protocol: as §1

F331 = experiment: MTT viability assay in nonmalignant fibroblasts F331; format: cell-based, human; conditions: 72 h, mean ± SD

IC50 (SK-OV-3) [nM]	IC50 (SK-OV-3/CBP) [nM]	IC50 (MES-OV) [nM]	IC50 (HCT116 WT) [nM]	IC50 (HCT116 WT/OxR) [nM]	IC50 (HCT116 p53KO) [nM]	Molecule	relative resistance (IC50 SK-OV-3/CBP divided by IC50 SK-OV-3) (SK-OV-3/CBP)	relative resistance (IC50 HCT116 WT/OxR divided by IC50 HCT116 WT) (HCT116 WT/OxR)	IC50 (MES-OV/CBP) [nM]	IC50 (F331) [nM]	further results
–	–	–	–	–	–	Cc1ccnc(-c2cc(C)ccn2)c1.O=S(=O)([O-])C(F)(F)F.[Ag+].c1ccc(P(c2ccccc2)c2ccccc2)cc1 [Compound 2, [Ag(4,4′-CH3-2,2′-bipy)(PPh3)][CF3SO3]]	1.5^n.s.	0.9^n.s.	–	–	–
–	–	–	–	–	–	O=S(=O)([O-])C(F)(F)F.OCc1ccnc(-c2cc(CO)ccn2)c1.[Ag+].c1ccc(P(c2ccccc2)c2ccccc2)cc1 [Compound 3, [Ag(4,4′-CH2OH-2,2′-bipy)(PPh3)][CF3SO3]]	1.4^n.s.	0.7^n.s.	–	–	relative resistance (IC50 MES-OV/CBP divided by IC50 MES-OV) (MES-OV/CBP): 0.8^n.s.
–	–	–	–	–	–	O=S(=O)([O-])C(F)(F)F.[Ag+].c1ccc(-c2ccccn2)nc1.c1ccc(P(CCP(c2ccccc2)c2ccccc2)c2ccccc2)cc1 [Compound 4, [Ag(2,2′-bipy)(dppe)][CF3SO3]]	0.8^n.s.	0.9^n.s.	–	–	cancer cells killed at lowest tested concentration (MES-OV): more than 50%; TrxR inhibition strength relative to 7 (recombinant rat TrxR): 10 fold; cells with mitochondrial depolarization (low Δψ fraction) (MES-OV cells [1]; 10 μM): 50%; ROS levels increase (peak) (MES-OV cells [2]): ~5 fold; stability in PBS [3]: immediate rearrangement of the ligands to afford a mixture between AgP2 and AgN2 species; vacuole diameter (TEM) (MES-OV cells [4]): 300–1500 nm; cytoplasmic vacuole formation (phase contrast) (MES-OV cells [5]): induced pronounced cytoplasmic vacuoles only after 24 h incubation
6500 ± 1660	5520 ± 2200	< 50	640 ± 60	540 ± 110	490 ± 140	[Ag(4,4′-CH2OH-2,2′-bipy)(dppe)][CF3SO3] [Compound 6]	0.8^n.s.	0.8^n.s.	< 50	> 10000	cancer cells killed at lowest tested concentration (MES-OV): more than 50%
6860 ± 1550	6500 ± 1290	60 ± 30	740 ± 60	750 ± 80	430 ± 50	[Ag(4,4′-CH3-2,2′-bipy)(dppe)][CF3SO3] [Compound 5]	0.9^n.s.	1.0^n.s.	60 ± 30	8520 ± 900	relative resistance (IC50 MES-OV/CBP divided by IC50 MES-OV) (MES-OV/CBP): 1.0^n.s.
–	5970 ± 1420	< 50	350 ± 40	380 ± 50	340 ± 10	[Ag(dppe)2][CF3SO3] [Compound 7]	–	1.1^n.s.	50 ± 20	5780 ± 500	activity relative to 4 after 24 h (MES-OV; 24 h MTT (Table S2)): about twofold more active than 4; cells with mitochondrial depolarization (low Δψ fraction) (MES-OV cells [1]; 1 μM): 30%; cells with mitochondrial depolarization (low Δψ fraction) (MES-OV cells [1]; 10 μM): 90%; ROS levels increase (peak) (MES-OV cells [2]): ~5 fold; stability in PBS [3]: stable under these conditions; diameter of big vacuoles (TEM) (MES-OV cells [4]): up to 7.5 μm; cytoplasmic vacuole formation (phase contrast) (MES-OV cells [5]): formation of cytoplasmic vacuoles near the nucleus within the cytoplasm was observed

Molecule	IC50 (SK-OV-3) [nM]	IC50 (SK-OV-3/CBP) [nM]	IC50 (MES-OV) [nM]	IC50 (HCT116 WT) [nM]	IC50 (HCT116 WT/OxR) [nM]	IC50 (HCT116 p53KO) [nM]	relative resistance (IC50 SK-OV-3/CBP divided by IC50 SK-OV-3) (SK-OV-3/CBP)	relative resistance (IC50 HCT116 WT/OxR divided by IC50 HCT116 WT) (HCT116 WT/OxR)	IC50 (MES-OV/CBP) [nM]	IC50 (F331) [nM]	further results
N.N.O=C([O-])C1(C(=O)[O-])CCC1.[Pt+2] [carboplatin, reference compound]	56500 ± 15400	89900 ± 5640	44300 ± 7090	–	–	–	1.6*	–	94700 ± 9240	–	–
O=C1[O][Pt]2([NH][C@@H]3CCCC[C@H]3[NH]2)[O]C1=O [oxaliplatin, reference compound]	–	–	–	720 ± 180	> 10000	2370 ± 450	–	>14**	–	–	–
